Measurements reported in US20190170731A1, “METHOD TO MEASURE RELATIVE UTILIZATION OF AEROBIC GLYCOLYSIS BY POSITIONAL ISOTOPIC DISCRIMINATION” (priority 2016, published 2019).

Columns and labels:
Format in all cases: cell-based
[1] = tested on: MDA-MB-231 cells; experiment: [1-13C]glucose labeling and LC-MS measurement of relative glycolysis rate; conditions: 10 μM KU-55933, MDA-MB-231 cells, 10 mM D-[1-13C]-glucose; samples at 1, 3 and 6 hours of labeling (as well as 9 hours, p<0.05)
Method: FIGS. 7A-B. A) Sub-confluent MDA-MB-231 cells were serum-starved overnight. Cells were washed with PBS and were then pre-treated with 10 μM KU-55933 (Halaby et al., 2008) for 30 minutes in the glucose- and serum-free medium. Fluorescently-tagged 2-NBDG (30 μg/ml) was then added for 30 minutes. Cells were treated with 100 nM insulin for another 45 minutes. Glucose Uptake was then measured following the manufacturer's instructions (Cayman Chemical). B) MDA-MB-231 cells were cultured in DMEM containing 10% FBS. After reaching […] confluent, cells were serum-starved overnight. Cells were then washed with PBS and incubated in serum- and glucose/pyruvate-free DMEM for 90 minutes. The labeling was initiated after replacing the medium with fresh serum- and glucose/pyruvate-free DMEM supplemented with 10 mM D-[1-^13C]-glucose ±10 μM KU-55933. […] 40 μL of medium was taken and diluted with 160 μL of methanol to precipitate the proteins. For LC-MS analysis, 2 μL of the supernatant were injected and analyzed with the Q-Exactive mass spec. The bar graph represents the average relative glycolysis rate ±SEM from 3 individual experiments (*p<0.05). […] These breast cancer cells were grown in DMEM supplemented with antibiotics and 10% fetal bovine serum. […] The relative rate of glycolysis for each cancer cell line was measured by the incorporation of [1-^13C]glucose into [3-^13C]lactate. […]

[2] = tested on: MDA-MB-231; experiment: 2-NBDG glucose uptake assay; conditions: MDA-MB-231, 100 nM insulin for 45 minutes, 30 μg/mL 2-NBDG
Method: (§1) FIG. 2. […] Sub-confluent cells were serum-starved overnight. Cells were then washed with PBS and cell culture medium was replaced with glucose- and serum-free medium. Fluorescently-tagged 2-NBDG (Cayman Chemical) was then added at a concentration of 30 μg/mL for 30 minutes. After addition of 2-NBDG, cells were treated with 100 nM insulin for another 45 minutes. Glucose uptake was then measured as described hereinbelow. The graph represents the averages of 2-NBDG glucose uptake ±SEM from 3 individual experiments (p<0.05).
(§2) Glucose uptake was analyzed using a 2-NBDG (2-deoxy-2-[(7-nitro-2,1,3-benzoxadiazol-4-yl)amino]-D-glucose, a fluorescently labeled 2-deoxyglucose) glucose uptake kit from Cayman Chemical. Briefly, cells were plated at 200,000 cells/well in a 24-well plate and allowed to grow to sub-confluency. Cells were then serum starved overnight. The next morning, cells were incubated in serum- and glucose-free medium for 30 minutes. Cells were then incubated with 30 μg/mL 2-NBDG for another 30 minutes. After incubation, cells were treated with 100 nM insulin for 45 minutes. Cells were then transferred to a clear-bottom black 96 cell plate. The plate was subjected to centrifugation at 400×g for 5 minutes. […] Signal intensity was measured with a Synergy 2 (BioTek) microplate reader at excitation/emission=485/535 nm.

[3] = tested on: MDA-MB-453; experiment: 2-NBDG glucose uptake assay; conditions: MDA-MB-453, 100 nM insulin for 45 minutes, 30 μg/mL 2-NBDG
Method: as §1, §2

| Compound | relative glycolysis rate ([1-13C]glucose to [3-13C]lactate) [1] | glucose uptake (2-NBDG) in response to insulin stimulation [2] | glucose uptake (2-NBDG) in response to insulin stimulation [3] |
| --- | --- | --- | --- |
| O=c1cc(-c2cccc3c2Sc2ccccc2S3)oc(N2CCOCC2)c1 [KU-55933] | significant inhibition of glycolysis rate |  |  |
| insulin |  | enhanced glucose uptake | enhanced glucose uptake |
